Test results published in US10314827B2, “Methods of use of cyclopamine analogs” (Infinity Pharmaceuticals, Inc., priority 2006, dated 2019).
Where two headings read alike, the source gives them in different places.

Tested on: Hedgehog pathway
Experiment: C3H10T1/2 osteoblast differentiation assay (alkaline phosphatase readout)
Format: cell-based, Mouse
Details: C3H10T1/2 cells, sonic Hedgehog 250 ng/ml, AP activity normalized to total protein, read-out: Differentiation Assay EC50 (approximate EC50 for inhibition)
Description: Hedgehog pathway specific cancer cell killing effects may be ascertained using the following assay. C3H10T1/2 cells differentiate into osteoblasts when contacted with the sonic hedgehog peptide (Shh-N). Upon differentiation; these osteoblasts produce high levels of alkaline phosphatase (AP) which can be measured in an enzymatic assay (Nakamura et al., X BBRC (1997) 237:465). Compounds that block the differentiation of C3H10T1/2 into osteoblasts (a Shh dependent event) can therefore be identified by a reduction in AP production (van der Horst et al., Bone (2003) 33:899). The assay details are described below. The results approximate (EC50 for inhibition) of the differentiation assay is shown below in Table 1.
Mouse embryonic mesoderm fibroblasts C3H10T1/2 cells (obtained from ATCC) were cultured in Basal MEM Media (Gibco/Invitrogen) supplemented with 10% heat inactivated FBS (Hyclone), 50 units/ml penicillin and 50 ug/ml streptomycin (Gibco/Invitrogen) at 37° C. With 5% CO2 in air atmosphere.
C3H10T1/2 cells were plated in 96 wells with a density of 8×10^3 cells/well. Cells were grown to confluence (72 hrs). After sonic Hedgehog (250 ng/ml), and/or compound treatment, the cells were lysed in 110 μL of lysis buffer (50 mm Tris ph 7.4, 0.1% tritonx100), plates were sonicated and lysates spun through 0.2 μm PVDF plates (Corning). 40 μL of lysates was assayed for AP activity in alkaline buffer solution (Sigma) containing 1 mg/ml p-Nitrophenyl Phosphate. After incubating for 30 min at 37° C., the plates were read on an Envision plate reader at 405 nm. Total protein was quantified with a BCA protein assay kit from Pierce according to manufacturer's instructions. AP activity was normalized against total protein.

Which EC50 (Mus musculus, C3H 10T1/2) does the source give for `CC1=C2C[C@H]3[C@@H](CC[C@@H]4CC(=O)CC[C@@]43C)[C@@H]2CC[C@@]2(C1)O[C@@H]1C[C@H](C)CN[C@H]1[C@H]2C` [Compound 1] here?
The EC50 was < 20 nM.

For `CC1=C2C[C@H]3[C@@H](CC=C4C[C@@H](OCc5ccccc5)CC[C@@]43C)[C@@H]2CC[C@@]2(C1)O[C@@H]1C[C@H](C)CN(C(=O)OCc3ccccc3)[C@H]1[C@H]2C` [Compound 7], which EC50 is on record?
Its EC50 is > 100 nM.

Which EC50 (Mus musculus, C3H 10T1/2) does the source give for `CC1=C2C[C@H]3[C@@H](CC[C@@H]4CCCC[C@@]43C)[C@@H]2CC[C@@]2(C1)O[C@@H]1C[C@H](C)CN[C@H]1[C@H]2C` [Compound 9] here?
Its EC50 is > 100 nM.

`CC1=C2C[C@H]3[C@@H](CC[C@@H]4CC(=O)CC[C@@]43C)[C@@H]2CC[C@@]2(C1)O[C@@H]1C[C@H](C)CN(C(C)C)[C@H]1[C@H]2C` [Compound 10] was tested. Which EC50 (Mus musculus, C3H 10T1/2) did it give?
Its EC50 is > 100 nM.

With `CC1=C2C[C@H]3[C@@H](CC[C@@H]4CC(=O)CC[C@@]43C)[C@@H]2CC[C@@]2(C1)O[C@@H]1C[C@H](C)CN(CCNCC(=O)c3ccccc3)[C@H]1[C@H]2C` [Compound 13] as the compound, how does the EC50 read?
The EC50 was < 20 nM.

How did the EC50 turn out when `CC1=C2C[C@H]3[C@@H](CCC4=CC(=O)CC[C@@]43C)[C@@H]2CC[C@@]2(C1)O[C@@H]1C[C@H](C)CN(CCN(C)C)[C@H]1[C@H]2C` [Compound 20] was run?
The EC50 was < 20 nM.
